These results are taken from PubChem BioAssay (NCI).

Each structure is given as a SMILES string.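 Grown in 96-well plates, cells were treated for 48 hours with each compound at five concentrations. Insufficient inhibition: endpoint recorded as highest concentration tested. GI50 is the concentration that inhibits growth by half. TGI marks complete inhibition of growth.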

Among the test systems are LOX IMVI melanoma; HCT-116 colon; MALME-3M melanoma; UACC-62 melanoma; U251 CNS; 786-0 renal; HCC-2998 colon; SN12C renal; SK-MEL-5 melanoma; RPMI-8226 leukemia.
What all share (test): NCI-60 cell line screen, 48 h

Turning to `COc1ccc(/C=C2\CCCC3=C2N=C2SC(C)=NN2C3c2ccc(OC)c(OC)c2)cc1OC` (stereo unspecified), the GI50 in the experiment with LOX IMVI melanoma was 4.52 µM; with HCT-116 colon it was 3.26 µM; in the experiment on MALME-3M melanoma, 15.1 µM; in the experiment with UACC-62 melanoma it was 4.68 µM; in the experiment with U251 CNS it was 26.2 µM; in the experiment on 786-0 renal it was 11 µM. Further, the GI50 with HCC-2998 colon was above 100 µM; in the experiment with SN12C renal, 14 µM; with SK-MEL-5 melanoma it was 6.27 µM. In addition, the TGI is 35.2 µM in the experiment with LOX IMVI melanoma; 14.3 µM in the experiment on HCT-116 colon; 56.6 µM with MALME-3M melanoma; 45.6 µM in the experiment with UACC-62 melanoma; above 100 µM in the experiment with U251 CNS; above 100 µM in the experiment with 786-0 renal. In addition, the TGI in the experiment with HCC-2998 colon, with SN12C renal and with SK-MEL-5 melanoma was above 100 µM each time.
As for `O=C(/C=C/c1ccccc1)c1cc(Br)ccc1O`, the TGI in the experiment with LOX IMVI melanoma was 27.5 µM; in the experiment with HCT-116 colon, 32.3 µM; in the experiment with UACC-62 melanoma it was 27.4 µM; with U251 CNS, 29.9 µM; in the experiment on RPMI-8226 leukemia, 34 µM; in the experiment on 786-0 renal it was 28.8 µM. The values for the TGI with HCC-2998 colon, in the experiment with SN12C renal and in the experiment on SK-MEL-5 melanoma were 32.2 µM, 29.7 µM and 34.6 µM, respectively.
On to `Cc1ccc(-c2cn3ccnc3c(-c3ccc(Cl)cc3)n2)cc1`, for which the GI50 was 0.384 µM in the experiment on LOX IMVI melanoma; 0.292 µM with HCT-116 colon; 0.137 µM with UACC-62 melanoma; 0.786 µM in the experiment on U251 CNS; 0.207 µM in the experiment with RPMI-8226 leukemia; 0.966 µM with 786-0 renal. Moreover, the GI50 is 2.13 µM with HCC-2998 colon, 0.532 µM in the experiment on SN12C renal and 0.0627 µM with SK-MEL-5 melanoma. Moreover, the TGI with LOX IMVI melanoma is 12.4 µM; in the experiment with HCT-116 colon it was above 33.8 µM; with UACC-62 melanoma, 35.9 µM; in the experiment with U251 CNS, 18.1 µM; in the experiment with RPMI-8226 leukemia it was above 39.5 µM; in the experiment with 786-0 renal, above 59.8 µM. In addition, the values for the TGI with HCC-2998 colon, in the experiment with SN12C renal and in the experiment on SK-MEL-5 melanoma were 11.4 µM, 62.5 µM and 11.4 µM, respectively.
For `CC1(C)C(=NNC(=O)C[N+](C)(C)C)C(C)(C)C1=NNC(=O)C[N+](C)(C)C`, the TGI in the experiment on LOX IMVI melanoma, with HCT-116 colon, in the experiment with MALME-3M melanoma, with UACC-62 melanoma, in the experiment with U251 CNS and in the experiment with 786-0 renal was above 100 µM each time. Besides, the TGI in the experiment on HCC-2998 colon, in the experiment on SN12C renal and in the experiment with SK-MEL-5 melanoma was above 100 µM each time.
As for `CC1=C(Oc2ccccc2)C(CCC(=O)O)c2c(O)cc(Cl)c(O)c21` (stereo unspecified), the TGI in the experiment on LOX IMVI melanoma, with HCT-116 colon, in the experiment with U251 CNS, in the experiment with RPMI-8226 leukemia, in the experiment on 786-0 renal and with HCC-2998 colon was above 100 µM each time. Also, the TGI in the experiment on SN12C renal and in the experiment on SK-MEL-5 melanoma was above 100 µM in each case.
`CN(C)CCCNC(CC#N)CCC#N` (stereo unspecified): the TGI in the experiment with LOX IMVI melanoma, with HCT-116 colon, in the experiment with MALME-3M melanoma, in the experiment on UACC-62 melanoma, in the experiment with U251 CNS and with 786-0 renal was above 10 µM each time. In addition, the TGI in the experiment with HCC-2998 colon, with SN12C renal and in the experiment on SK-MEL-5 melanoma was above 10 µM throughout.
Consider `CC(C)[C@H]1CO[C@]2(C)[C@@H]3CN(Cc4ccccc4)C[C@@H]3C(=O)N12`, for which the TGI in the experiment on HCT-116 colon, in the experiment on MALME-3M melanoma, with UACC-62 melanoma, with U251 CNS, in the experiment on RPMI-8226 leukemia and in the experiment on 786-0 renal was above 100 µM in each case. For the same compound, the TGI with SN12C renal and in the experiment with SK-MEL-5 melanoma was above 100 µM throughout.
As for `Nn1c(NNC(=O)C(=O)Nc2cc(Cl)c(Cl)cc2Cl)n[nH]c1=S`, the TGI in the experiment on LOX IMVI melanoma, in the experiment with HCT-116 colon, with MALME-3M melanoma, with UACC-62 melanoma, with U251 CNS and in the experiment on 786-0 renal was above 100 µM throughout. Besides, the TGI in the experiment with HCC-2998 colon, in the experiment on SN12C renal and in the experiment with SK-MEL-5 melanoma was above 100 µM throughout.
As for `NC1C[C@H](n2cc(/C=C/Br)c(=O)[nH]c2=O)C[C@@H]1CO` (stereo partly specified), the TGI with LOX IMVI melanoma, with UACC-62 melanoma, in the experiment with U251 CNS, in the experiment with RPMI-8226 leukemia, with 786-0 renal and in the experiment on HCC-2998 colon was above 100 µM each time. The TGI in the experiment with SN12C renal is above 100 µM.
As for `Cc1ccccc1[P+](Cc1ccccc1)(c1ccccc1)c1ccccc1`, the GI50 was 2.27 µM in the experiment with LOX IMVI melanoma; 1.92 µM with HCT-116 colon; 1.36 µM in the experiment with UACC-62 melanoma; 1.99 µM in the experiment with U251 CNS; 0.603 µM in the experiment on RPMI-8226 leukemia; 4.81 µM in the experiment on 786-0 renal. The GI50 with HCC-2998 colon is 2.06 µM; in the experiment with SN12C renal, 2.85 µM; with SK-MEL-5 melanoma it was 0.863 µM. Also, the TGI with LOX IMVI melanoma is 15.3 µM; in the experiment with HCT-116 colon it was above 100 µM; with UACC-62 melanoma, 11.9 µM; with U251 CNS, 35.2 µM; with RPMI-8226 leukemia, 6.34 µM; with 786-0 renal, above 100 µM. Besides, the TGI in the experiment with HCC-2998 colon was determined as 23.2 µM; in the experiment with SN12C renal it was 90.3 µM; with SK-MEL-5 melanoma it was 2.29 µM.
With `COc1ccc(-c2n/c(=C\c3c(O)[nH]c4ccc(OC)cc34)cc3c2=Nc2ccccc2-3)cc1`, the GI50 in the experiment on LOX IMVI melanoma was 19.9 µM; in the experiment with HCT-116 colon, 1.85 µM; in the experiment on RPMI-8226 leukemia, 3.21 µM; in the experiment on 786-0 renal it was 1.92 µM; in the experiment with HCC-2998 colon, 2.93 µM; in the experiment on SN12C renal, 4 µM. The GI50 with SK-MEL-5 melanoma was 1.53 µM. Also, the TGI in the experiment with LOX IMVI melanoma is 75.4 µM; with HCT-116 colon, 3.33 µM; in the experiment with RPMI-8226 leukemia it was 37.3 µM; in the experiment on 786-0 renal, 3.37 µM; in the experiment on HCC-2998 colon, 10.1 µM; with SN12C renal, above 100 µM. Also, in the experiment with SK-MEL-5 melanoma, the TGI came out at 2.91 µM.
Consider `Cc1ccc(N=Cc2ccc3c(c2)OCO3)cc1C`, for which the TGI with LOX IMVI melanoma, in the experiment with HCT-116 colon, in the experiment on MALME-3M melanoma, with UACC-62 melanoma, with RPMI-8226 leukemia and in the experiment on 786-0 renal was above 100 µM each time. The TGI in the experiment on SN12C renal and in the experiment with SK-MEL-5 melanoma was above 100 µM in each case.
Turning to `O=C1/C(=C\c2c[nH]c3ccccc23)c2ccccc2N1c1c(Cl)cccc1Cl`, the GI50 with LOX IMVI melanoma is 1.59 µM; in the experiment on HCT-116 colon it was 1.3 µM; with UACC-62 melanoma, 1.33 µM; in the experiment on U251 CNS it was 1.58 µM; in the experiment on RPMI-8226 leukemia it was 1.89 µM; with 786-0 renal it was 1.74 µM. Also, the GI50 with HCC-2998 colon was 1.7 µM; in the experiment with SN12C renal, 1.53 µM; in the experiment on SK-MEL-5 melanoma, 1.55 µM. Also, the TGI was 3.09 µM in the experiment with LOX IMVI melanoma; 2.56 µM in the experiment with HCT-116 colon; 2.64 µM with UACC-62 melanoma; 3.68 µM in the experiment on U251 CNS; 4.68 µM in the experiment with RPMI-8226 leukemia; 3.21 µM in the experiment with 786-0 renal. Also, the TGI was 3.12 µM with HCC-2998 colon, 2.89 µM in the experiment with SN12C renal and 2.92 µM with SK-MEL-5 melanoma.
As to `CCCCCCCCN=C(N)c1ccc(N2CCN(c3ccc(C(N)=NCCCCCCCC)cc3)CC2)cc1`, the GI50 in the experiment with LOX IMVI melanoma is 1.92 µM; in the experiment on HCT-116 colon it was 1.64 µM; with UACC-62 melanoma it was 1.92 µM; in the experiment on U251 CNS, 1.45 µM; in the experiment with 786-0 renal, 1.67 µM; with HCC-2998 colon it was 2.06 µM. The GI50 in the experiment on SN12C renal was 1.09 µM; in the experiment with SK-MEL-5 melanoma, 1.05 µM. Further, the TGI in the experiment on LOX IMVI melanoma is 9.01 µM; in the experiment on HCT-116 colon, 5.99 µM; in the experiment with UACC-62 melanoma, 8.44 µM; in the experiment on U251 CNS it was 6.33 µM; in the experiment on 786-0 renal it was 5.49 µM; with HCC-2998 colon, 8.79 µM. For the same compound, the figures for the TGI with SN12C renal and in the experiment with SK-MEL-5 melanoma were 3.05 µM and 2.45 µM, respectively.
`CCCCC(CC)CN=C(N)NC(N)=NCCCCCCN=C(N)NC(N)=NCC(CC)CCCC` (stereo unspecified): the GI50 is 1.84 µM in the experiment with UACC-62 melanoma, 2.16 µM in the experiment with 786-0 renal and 1.52 µM in the experiment with SN12C renal. The TGI in the experiment on UACC-62 melanoma was found to be 4.12 µM; with 786-0 renal, 4.91 µM; with SN12C renal it was 4.39 µM.
Turning to `COc1cc(OC(C)=O)cc2c(OC(C)=O)ccc(OC(C)=O)c12`, the TGI in the experiment on LOX IMVI melanoma, in the experiment with HCT-116 colon, with UACC-62 melanoma, in the experiment on U251 CNS, in the experiment with RPMI-8226 leukemia and in the experiment on 786-0 renal was above 100 µM in each case. Moreover, the TGI in the experiment on SN12C renal and with SK-MEL-5 melanoma was above 100 µM throughout.
On to `CCc1ccccc1NC(=O)C(=O)CC(=O)c1sc(Nc2ccccc2)nc1C`, for which the TGI in the experiment on LOX IMVI melanoma, with HCT-116 colon, in the experiment on MALME-3M melanoma, with UACC-62 melanoma, in the experiment with U251 CNS and in the experiment on 786-0 renal was above 100 µM each time. Besides, the TGI in the experiment on HCC-2998 colon, in the experiment with SN12C renal and in the experiment on SK-MEL-5 melanoma was above 100 µM in each case.
With `C[C@@H]1C[C@H]2CC[C@H](O2)[C@H](C)C(=O)O[C@@H](C)C[C@@H]2CC[C@@H](O2)[C@@H](C)C(=O)O[C@H](C)C[C@H]2CC[C@H](O2)[C@H](C)C(=O)O[C@@H](C)C[C@@H]2CC[C@@H](O2)[C@@H](C)C(=O)O1`, the TGI in the experiment with LOX IMVI melanoma was 2.82 µM; in the experiment with HCT-116 colon, above 100 µM; with MALME-3M melanoma, 2.67 µM; in the experiment with UACC-62 melanoma, above 61.3 µM; with U251 CNS, above 100 µM; in the experiment with 786-0 renal, 41.8 µM. For the same compound, the figures for the TGI with HCC-2998 colon, with SN12C renal and with SK-MEL-5 melanoma were above 27.8 µM, 18.9 µM and 0.401 µM, respectively.
